Literature values as cited in US20220339173A1, “ORAL COMPOSITION FOR IMPROVING MEMORY-LEARNING ABILITY” (priority 2019, published 2022).

Tested on: c-Fos activity

Substance: phosphatidylserine
- c-Fos activity in the hippocampus (hippocampus): no changes
- c-Fos activity in the paraventricular nucleus (paraventricular nucleus): changes in c-Fos activity in the brain region are found
